# Reference: patent publication US20230190883A1, “STABLE PEPTIDES HAVING RENALASE AGONIST ACTIVITY” (Bessor Pharma, LLC, priority 2020, published 2023)
# Marks after values point to notes of the source that are not given here.
# Assays:
# [1] = tested on: carrageenan-induced Paw edema; assay: carrageenan-induced paw edema (CPE) model in mice; assay type: in vivo, CD-1 mice; conditions: for activity at 2 hours: 2 hours after carrageenan
# Excerpt: This test is a rapid in vivo model for evaluation of anti-inflammatory efficacy of test articles. The CPE model in mice quantitativdy assesses inhibition of edema enduced by subplantarinjection of carrageenan. […] Carrageenan-induced inflammation invoves extravasation of polymorphonuclear leukocytes from circulation to the site of inflammation. The subsequent release of myeloperoxidase and other cytokines within the interstitial tissues results in plasma exudation into the site of inflammation. The increased paw volume is measured by water displacement. Anti-inflammatory drugs reduce the paw edema.
# • 1. Receive (SOP 1910, SOP 1920) and quarantine (SOP 560) 125 CD-1 mice (Charles River Laboratories, male, 5-6 weeks old). • 2. Animals are ear tagged (SOP 810), weighed, and sorted into 9 groups with 10 animals/group and 5 groups of 7 animals/group based upon average body weight. • 3. Prepare 3% carrageenan solution: • 1) Preparation at least 2 weeks in advance of use. • 2) Weigh out 600 mg A-carrageenan into a glass beaker. • 3) Add 20 ml deionized water. • 4) Stir on mild heat until carrageenan fully dissolved. • 5) Cool solution to ambient temperature. • 6) Store at 4-8° C. • 4. Until the day of use the renalase peptides are stored at -20° C. as dry powder. • 5. DAY 0 • a. Prepare test material in sterile saline (vehicle). • b. On the day of dosing, renalase peptides are dissolved. • c. On day prior to administration check carrageenan solution for clarity (no visible evidence of contamination). • 1) Equilibrate carrageenan to ambient temperature. • d. Record mouse weights in laboratory notebook. • e. Measure and record paw initial paw volumes: • 1) Place beaker of water on balance and tare to zero. • 2) Place right hind limb in the beaker of water on the scale with the top of the hock centered in the meniscus of the water. Record read-out on the scale. • 3) The foot must be dried after each measurement as wet feet will change the readout. • 4) Re-tare the scale between measurements to account for decrease in water volume. • f. […]
# The test was also conducted to compare the inhibition of inflammation by peptide 10 as compared to the corresponding peptide fragment without the alanine substitution at position 220 (peptide 81).
# [2] = tested on: cisplatin induced kidney injury; assay: cisplatin-induced kidney injury in vivo
# Excerpt: A key measure of this toxicity is a decrease in kidney mass; this is limited when Renalase A (205-240)-OH is given. More dramatic is the effect of peptide on the reduced renal function seen with cisplatin induced renal injury.
# [3] = tested on: renal ischemia reperfusion injury; assay: renal ischemia reperfusion injury, preclinical murine model; assay type: in vivo
# [4] = tested on: blood from healthy donors; assay type: cell-based
# [5] = tested on: cultured proximal renal tubule cell line; assay: cisplatin-induced injury of cultured kidney cells; assay type: cell-based
# Excerpt: We have shown that a peptide of the invention [Ala^220]-Ac-Renalase A (205-240)-NH2 eliminated cisplatin-induced injury of cultured kidney cells. […] Data are shown below for such RNLS agonists
# COVID-19 mouse model = assay: COVID-19 mouse model, survival; conditions: FIG. 11
# [6] = tested on: cerulin-induced severe pancreatitis; assay: cerulin-induced severe pancreatitis model; assay type: in vivo; conditions: FIG. 13
# acute pancreatitis = assay: experimental acute pancreatitis (AP), mouse model; assay type: in vivo
# Excerpt: This likely represents inhibition of inflammatory pathways central to AP pathogenesis; a probable target is inflammatory activation (FIG. 5). Since most patients with AP present long after disease onset and later onset responses are most important in determining AP severity, the beneficial effects of peptide 10 should be therapeutically valuable even late in the course of disease. In this context we have shown that RNLS agonists reduce injury when given 2 hrs after the onset of cerulein AP and 12hrs after the induction of arginine AP.
# cronin 1 = assay: levels of cronin 1, marker for inflammatory cells; conditions: FIG. 14
# severe viral infection = assay: model of severe viral infection in renalase-deficient mice; conditions: FIG. 12
# [7] = 10 mpk, * = statistical significance
# [8] = peptide at 50 ug/ml, 3 hrs incubation, ELISA, p<0.01
molecule,measurement,setting,value
"C[C@@H]1C[C@H]2[C@@H]3CCC4=CC(=O)C=C[C@]4(C)[C@@]3(F)[C@@H](O)C[C@]2(C)[C@@]1(O)C(=O)CO [Dexamethasone, reference compound]","percent change from control, paw edema, 2 hr after carrageenan",[1]; [7],51.2* percent
same,"percent change from control, paw edema, 4 hr after carrageenan",[1]; 10 mpk,49.7* percent
same,"percent change from control, paw edema, 10 hr after carrageenan",[1]; 10 mpk,55.6* percent
"COc1ccc2c(c1)c(CC(=O)O)c(C)n2C(=O)c1ccc(Cl)cc1 [Indomethacin, reference compound]","percent change from control, paw edema, 2 hr after carrageenan",[1]; 5 mpk,79.4* percent
same,"percent change from control, paw edema, 4 hr after carrageenan",[1]; 5 mpk,60.3* percent
same,"percent change from control, paw edema, 6 hr after carrageenan",[1]; 5 mpk,42.4* percent
same,"percent change from control, paw edema, 10 hr after carrageenan",[1]; 5 mpk,21.3%
Renalase A (205-240)-OH [Peptide 81],plasma creatinine levels,"[2]; 17 days of cisplatin treatment (4-fold increase without agonist), FIG. 4 right panel",reduced this toward the normal range
same,kidney injury after cisplatin-induced treatment,[2]; FIG. 4,reduces kidney injury
same,decrease in kidney mass,"[2]; cisplatin toxicity, FIG. 4",limited
same,"percent change from control, paw edema, 2 hr after carrageenan",[1]; 3 mpk,14.2%
same,"percent change from control, paw edema, 4 hr after carrageenan",[1]; 3 mpk,1.6%
same,"percent change from control, paw edema, 6 hr after carrageenan",[1]; 3 mpk,−13.1%
same,"percent change from control, paw edema, 10 hr after carrageenan",[1]; 3 mpk,2.4%
same,"percent change from control, paw edema, 2 hr after carrageenan",[1]; [7],62.6* percent
same,"percent change from control, paw edema, 4 hr after carrageenan",[1]; 10 mpk,0.5%
same,"percent change from control, paw edema, 6 hr after carrageenan",[1]; 10 mpk,2.9%
same,"percent change from control, paw edema, 10 hr after carrageenan",[1]; 10 mpk,13.3%
same,activity at 2 hours,[1],active
"[Ala^220]-Ac-Renalase A (205-240)-NH2 (KIDVPWAGQYITSNPAIRFVSIDNKKRNIESSEIGP; N-acetyl, C-terminal amide; Based on homo sapiens sequence) [peptide 10]",renal ischemia reperfusion injury,[3],reduced
same,inflammatory response to SARS-CoV-2 peptides,[4]; FIG. 5,decreases
same,SARS-CoV-2-peptide induced increase of IL1-beta,[4]; [8],inhibited
same,SARS-CoV-2-peptide induced increase of IL6,[4]; [8],inhibited
same,SARS-CoV-2-peptide induced increase of TNF-alpha,[4]; [8],inhibited
same,SARS-CoV-2 peptide S and M induced levels of interferon-gamma,"[4]; peptide at 50 ug/ml, SARS-CoV-2 peptides 0.19 nM, 3 hrs incubation, ELISA",dramatically decreased
same,cisplatin-induced injury of cultured kidney cells,[5],eliminated
same,injury in a cultured proximal renal tubule cell line,[5]; FIG. 3,reduces injury
same,survival,COVID-19 mouse model,improves survival
same,necrosis,[6],effective in reducing necrosis
same,injury in acute pancreatitis,acute pancreatitis; FIG. 2,reduces injury
same,earliest AP responses (acinar cell related),"acute pancreatitis; earliest responses, not shown",no effects
same,levels of active trypsin,"acute pancreatitis; later responses (6 hrs), FIG. 2A",tended to reduce
same,tissue neutrophils,"acute pancreatitis; later responses (6 hrs), FIG. 2B",dramatically decrease
same,mitochondrial injury as determined by OPA-1 and Parkin levels,"acute pancreatitis; later responses (6 hrs), FIG. 2C, D",reduced
same,levels of cronin 1,cronin 1,decreases
same,protection in severe viral infection,severe viral infection,protects
same,anti-inflammatory effect on paw edema,"[1]; 0.3-30 mg/kg SC 30 min prior to carrageenan, test period of 10 hours, FIGS. 6 and 7",has an anti-inflammatory effect
same,activity at 2 hours,[1],active
same,activity and duration of activity compared with peptide 81,"[1]; comparable but different experiments, same protocols",more active and longer active than peptide 81
same,activity for longer periods of time,[1]; later than 2 hours,only peptide 10 was active
same,activity compared with standards,[1]; versus dexamethasone and indomethacin,activity more in line with standards dexamethasone and indomethacin
